pIC50: −log10 of the molar value.
How the values were obtained:
MDA-MB-231 cell line [1] = experiment: MTS cell viability assay in MDA-MB-231 cell line; type: cell-based; conditions: Homo sapiens, MDA-MB-231, 72 hours
Procedure: A HER2 positive breast cancer (HER2+BC) cell line, JIMT-1 (cell seeding numbers: 1.0 (JIMT)×10^4 cells/wells (confluency≤30%)) and a triple-negative breast cancer (TNBC) cell line, MDA-MB-231 (cell seeding numbers: 1.0 (M231)×10^4 cells/wells (confluency≤30%) were used in the experiment.
The above cell lines were cultured in Dulbecco's Modified Eagle's Medium (DMEM) or Eagle's minimum Essential Medium (MEM) each containing 10% fetal bovine serum (FBS), streptomycin-penicillin (100 U/ml), and Fungizone (0.625 μg/ml), respectively under 5% CO2, 37° C. environment.
The JIMT-1 cell line and MDA-MB-231 cell line were treated with the indazole derivatives (formulas 1-1 to 1-53) of the present disclosure at a concentration of 10 μM each for 72 hours, and then cell viability was measured using the MTS assay technique. The control group was treated with DMSO as an untreated group (0 μM) of the indazole derivative of the present disclosure.
(§1) Specifically, cells were attached to 96 well plates for 24 hours, and then treated with the indazole derivatives for 72 hours. Thereafter, the cells were chromogenized with MTS for 4 hours, and the absorbance was measured at 490 nm using a Spectramax Plus384 microplate analyzer. The significance between the control group and the experimental group was verified using an unpaired Students t-test (*p<0.01; DMSO control vs indazole series).
HER2-positive breast cancer cell lines, BT474 (cell seeding numbers: 2.0 (JIMT)×10^4 cells/wells (confluency≤30%)) sensitive to trastuzumab, and JIMT-1 (cell seeding numbers: 1.0 (JIMT)×10^4 cells/wells (confluency≤30%)) resistant to trastuzumab, and a triple-negative breast cancer cell line, MDA-MB-231 (cell seeding numbers: 1.0 (M231)×10^4 cells/wells (confluency≤30%)) were used.
The BT474, JIMT-1, and MDA-MB-231 cell lines were treated with compound 18c (formula 1-16) and compound 11k (formula 1-7) at concentrations of 0 (DMSO), 0.1, 0.5, 1, 5, 10, and 20 μM, respectively, for 72 hours, and then cell viability was measured using the MTS assay technique as explained by the description of Experimental Example 1. The cell viability experiment was performed independently three times, and the significance was verified by a One-Way Anova, Bonferroni post-hoc test (*p<0.01; DMSO control vs. compound 18c or compound 11k).
In addition, the JIMT-1 and MDA-MB-231 cell lines were treated with compound 11m (formula 1-9), 11n (formula 1-10) and compound 12k (formula 1-13) at concentrations of 0 (DMSO), 0.1, 1, 5, 10, and 20 μM, respectively, for 72 hours, and then cell viability was measured.
(§2) Meanwhile, triple-negative breast cancer cell lines MDA-MB-231 and BT549, and a mouse breast cancer cell line 4T1 were treated with compound 38 (formula 1-30) at concentrations of 0 (DMSO), 0.1, 0.5, 1, 2, 5, 10, and 20 μM for 72 hours, and then cell viability was measured.
The indazole derivative of the present disclosure was compared with the benzopyran derivative of the related art (KR 10-2304532) in terms of cell viability of the BT474, JIMT-1, and MDA-MB-231 cell lines (Table 1). In this case, the cell lines were treated with the benzopyran derivative at a concentration of 10 μM for 72 hours and the cell lines were treated with the indazole derivative at a concentration of 10 μM for 72 hours, and then the cell viability was measured.

JIMT-1 cell line = experiment: MTS cell viability assay in JIMT-1 cell line; type: cell-based; conditions: Homo sapiens, JIMT-1, 72 hours
Procedure: The control group was treated with DMSO as an untreated group (0 μM) of the indazole derivative of the present disclosure.
Specifically, cells were attached to 96 well plates for 24 hours, and then treated with the indazole derivatives for 72 hours. Thereafter, the cells were chromogenized with MTS for 4 hours, and the absorbance was measured at 490 nm using a Spectramax Plus384 microplate analyzer.
HER2 positive breast cancer (HER2+BC) cell lines, BT474 (cell seeding numbers: 2.4 (BT474)×10^4 cells/wells (confluency≥50%)) sensitive to trastuzumab and JIMT-1 (cell seeding numbers: 1.0 (JIMT-1)×10^4 cells/wells (confluency>30%)) resistant to trastuzumab were used in the experiment.
In this case, the cell lines were treated with the benzopyran derivative at a concentration of 10 μM for 72 hours and the cell lines were treated with the indazole derivative at a concentration of 10 μM for 72 hours, and then the cell viability was measured.

MDA-MB-231 cell line [2] = experiment: Cell morphology by phase contrast microscopy, MDA-MB-231; type: cell-based; conditions: MDA-MB-231, 5 and 10 μM, 72 hours
Procedure: (§3) MDA-MB-231 and BT549 cell lines were treated with compound 38 (formula 1-30) at concentrations of 0 (DMSO), 5, and 10 μM for 72 hours. Then, the drug-induced cytotoxicity was assessed by observing changes in cell morphology using phase contrast microscopy. The photographs were taken at a magnification of ×200 using phase contrast microscopy.

BT549 cell line [3] = experiment: Cell morphology by phase contrast microscopy, BT549; type: cell-based; conditions: BT549, 5 and 10 μM, 72 hours
Procedure: as §3

BT549 cell line [4] = experiment: Annexin V/PI staining, type of cell death, BT549; type: cell-based
Procedure: (§4) Meanwhile, triple-negative breast cancer cell lines, MDA-MB-231 and BT549 were treated with compound 38 (formula 1-30), and then the type of cell death was determined by Annexin V/PI staining.

BT549 cell line [5] = experiment: MTS cell viability assay in BT549 cell line; type: cell-based; conditions: Homo sapiens, BT-549; BT549, 72 hours
Procedure: as §1, §2

MDA-MB-231 cell line [6] = experiment: Annexin V/PI staining, type of cell death, MDA-MB-231; type: cell-based; conditions: MDA-MB-231, Annexin V/PI staining
Procedure: as §4

[7] = system: mouse breast cancer cell line 4T1; experiment: MTS cell viability assay in 4T1 cell line; type: cell-based; conditions: 4T1, 72 hours
Procedure: as §1, §2

[8] = Toxicity in JIMT-1 xenograft mice, combination with paclitaxel (body weight, AST, ALT, BUN); type: in vivo, Balb/c nude mice; conditions: combination study
[9] = system: JIMT-1 breast cancer cell line xenograft; experiment: Tumor growth in JIMT-1 xenograft mouse model, combination with paclitaxel; type: in vivo, Balb/c nude mice
Procedure: This experiment was performed in an in vivo environment using a xenograft mouse model transplanted with the JIMT-1 breast cancer cell line.
6-week-old mice (Balb/c nude mice) were purchased and raised in an environment where they could freely access food and water. The mice were acclimated for more than 7 days, and then were transplanted with tumor cells. Tumor cells were injected subcutaneously into the mammary gland tissue of JIMT-1 breast cancer cells at a density of 3×10^6 cells/mL per individual, and when the tumor reached a size of 50 to 100 mm^3, the indazole derivative of the present disclosure was administered intraperitoneally, and the tumor growth was measured.

COc1c(C(=O)Nc2ccc3c(C)nn(CCCN4CCN(C)CC4)c3c2)ccc2c1C=CC(C)(C)O2 [compound 11n, 5-methoxy-2,2-dimethyl-N-(3-methyl-1-(3-(4-methylpiperazin-1-yl)propyl)-1H-indazol-6-yl)-2H-chromene-6-carboxamide]
pIC50 (MDA-MB-231 cell line [1]): 5.44 | pIC50 (JIMT-1 cell line): 5.48

COc1c(C(=O)Nc2ccc3cnn(CCC4CCN(C)CC4)c3c2)ccc2c1C=CC(C)(C)O2 [compound 12k, 5-methoxy-2,2-dimethyl-N-(1-(2-(1-methylpiperidin-4-yl)ethyl)-1H-indazol-6-yl)-2H-chromene-6-carboxamide]
pIC50 (MDA-MB-231 cell line [1]): 5.69 | pIC50 (JIMT-1 cell line): 5.26

Cc1nn(CCC2CCN(C)CC2)c2cc(NC(=O)c3ccc4c(c3Cl)C=CC(C)(C)O4)ccc12 [compound 38, 5-chloro-2,2-dimethyl-N-(3-methyl-1-(2-(1-methylpiperidin-4-yl)ethyl)-1H-indazol-6-yl)-2H-chromene-6-carboxamide]
changes in cell morphology (cytotoxicity) (MDA-MB-231 cell line [2]): morphological changes in which the cytoplasm shrank | pIC50 (MDA-MB-231 cell line [1]): 5.44 | changes in cell morphology (cytotoxicity) (BT549 cell line [3]): morphological changes in which the cytoplasm shrank | type of cell death (apoptosis) (BT549 cell line [4]): early and late apoptosis of cancer cells was induced | pIC50 (BT549 cell line [5]): 5.32 | type of cell death (apoptosis) (MDA-MB-231 cell line [6]): early and late apoptosis of cancer cells was induced | pIC50 [7]: 5.92

CC(=O)O[C@H]1C(=O)[C@@]2(C)[C@H]([C@H](OC(=O)c3ccccc3)[C@]3(O)C[C@H](OC(=O)[C@H](O)[C@@H](NC(=O)c4ccccc4)c4ccccc4)C(C)=C1C3(C)C)[C@]1(OC(C)=O)CO[C@@H]1C[C@@H]2O [paclitaxel, reference compound]
AST and ALT levels, BUN assay ([8]; blood of the mouse model): levels similar to those of the control group | body weight [8]: remained unchanged | tumor weight ([9]; measured after tumor resection): 488.333 mg | tumor volume ([9]; measured at 40 days after drug administration): 813.356 mm^3
